# Data from PubChem BioAssay (NCI).
# Where “and” joins values, the source holds several entries; their conditions need not be identical. Identical values can stand only once.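 Exposure lasted 48 hours, with cells grown in 96-well plates and compounds tested at five concentrations. GI50 is the concentration that inhibits growth by half. At the TGI there is no net growth.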
# Test system: MDA-MB-468 breast
# Test: inhibition of tumour cell growth, NCI panel, 48 h
SMILES,GI50,TGI
CCNCCNc1cc(-c2ccc(C(=O)OC)cc2)c(C#N)c2nc3ccccc3n12,1370 nM,2860 nM
COc1cc(OC)cc(-c2ccc(-c3ccc(C(=N)N)o3)o2)c1,2400 nM,4730 nM
CN(C)CCNc1cc(-c2ccccc2)nc2ccccc12,3850 nM,16800 nM
O=C(CN1CCOCC1)Nc1ccc(Cn2nnc3c2C(=O)c2nnn(Cc4ccc(NC(=O)CN5CCOCC5)cc4)c2C3=O)cc1,208 nM,550 nM
CCCCC/C(C=C(C#N)C#N)=C/c1ccccc1,10200 nM,27200 nM
N#CSCC1CC(O)(c2ccccc2)C(c2ccccc2)C(c2ccc(Cl)cc2)O1 (centres undefined),1440 nM,2850 nM
NCC(=O)NS(=O)(=O)OC[C@H]1O[C@@H](n2cnc3c(N)ncnc32)[C@H](O)[C@@H]1O,742 nM,2560 nM
CN(C)CCNC(=O)c1ccc(-c2nc3ccc4[nH]ncc4c3c3c2CCC3)cc1,448 nM,1490 nM
CC1=C(CCCNS(C)(=O)=O)C2=C(C)C3(CC3)[C@@](C)(O)C(=O)C2=C1,354 nM,1660 nM
COc1cc(/C=N/n2cnc3oc(-c4ccccc4)cc3c2=N)cc(CN2CCCC2)c1O,2010 nM,5080 nM
CN1CCN(Cc2ccc(NC(=O)c3cncc(C#Cc4cnc(N)c5ccc(C#N)cc45)c3)cc2C(F)(F)F)CC1,60.8 nM,627 nM
CC1=C(C(=O)Nc2ccc3[nH]ncc3c2)C(c2ccc3ccccc3c2)CC(=O)N1 (centres undefined),13900 nM,> 25000 nM
COc1cc(/C=C/c2cc(/C=C/c3ccc(O)c(OC)c3)n(-c3ccccc3)n2)ccc1O,271 nM,908 nM
Cn1c(N2NC(=O)C(N=Nc3ccc(S(N)(=O)=O)cc3)C2=O)nc(-c2ccco2)c(C#N)c1=O (centres undefined),1610 nM,6730 nM
CC[CH2][Pb]([CH2]CC)([CH2]CC)[O]C(=O)C(F)(F)F,55.1 nM,153 nM
COc1ccc(C2=NN(C(=O)c3cc(OC)c(OC)c(OC)c3)C(c3ccc(C#N)cc3)C2)cc1OC (centres undefined),419 nM,2890 nM
Nc1ccn(C2O[C@H](CO)[C@@H](O)[C@@H]2O)c(=O)n1 (some centres undefined),> 100000 nM,> 100000 nM
Oc1ccc(CSc2nnc(-c3cnccn3)n2-c2ccccc2)c2cccnc12,970 nM,> 20000 nM
O=C(O)CCCCC(CCSCc1ccccc1)SCc1ccccc1 (centres undefined),45100 nM,> 91400 nM
COc1ccc2c(c1)c(-c1nc(-c3cn(C)c4ncccc34)cs1)cn2CCCN1CCCCC1,1800 nM,3550 nM
C[C@]12CC[C@H](O)CC1=CC[C@@H]1[C@@H]2CC[C@]2(C)C(c3cccnc3)=CC[C@@H]12,26900 nM,> 100000 nM
CCCCC(=O)OCC1OC(n2cnc3c(=S)nc[nH]c32)C(OC(=O)CCCC)C1OC(=O)CCCC (centres undefined),215 nM,1520 nM
Cc1ccc(S(=O)(=O)N(CCOc2ccc(/C(N)=N/Cl)cc2)CCOc2ccc(/C(N)=N\Cl)cc2)cc1,3980 nM,21400 nM

SMILES,GI50,TGI
COc1ccc2[nH]c(O)c(/C=c3/cc4c(c(-c5cc(OC)c(OC)c(OC)c5)n3)=Nc3ccccc3-4)c2c1,2620 nM,11700 nM
O=[N+]([O-])/C=C\c1ccc(Cl)c(Cl)c1,1790 nM,3760 nM
CNC(=O)OCc1c(COC(=O)NC)c(-c2ccc(Cl)c(Cl)c2)n2c1SCC2,264 nM,1270 nM
COc1ccc(/C(=C2\O[C@@H]([C@H]3COC(C)(C)O3)[C@H]3OC(C)(C)O[C@@H]23)c2cc(OC)c(OC)c(OC)c2)cc1O,14500 nM,34100 nM
Cc1ccc2c(c1)C(=O)/C(=C/c1ncc([N+](=O)[O-])n1C)O2,1850 nM,4340 nM
Cc1c(F)c(N)c2c(=O)cc(-c3ccc(NC(=O)CN(C)C)c(F)c3)oc2c1F,57.7 nM,394 nM
CCOc1cccc(/C=N/NC(=O)c2ccccc2Nc2ccnc(C(F)(F)F)c2)c1O,271 nM,9280 nM
O=C1c2c(c3c4ccccc4n(CCCCCCBr)c3c3[nH]c4ccccc4c23)C(=O)N1O,2820 nM,8180 nM
COC(=O)CCCCN=Cc1c(O)c(O)c(C(C)C)c2cc(C)c(-c3c(C)cc4c(C(C)C)c(O)c(O)c(C=NCCCCC(=O)OC)c4c3O)c(O)c12,780 nM,3060 nM
COc1cccc(/C=N/NC(=O)c2ccccc2Nc2ccnc(C(F)(F)F)c2)c1O,218 nM,9620 nM
O=C(Nc1ccc(N2CCNCC2)cc1)c1[nH]ncc1Nc1cc(Oc2ccccc2)ncn1,1990 nM,4830 nM
COc1cc(O)c2c(c1)/C=C/C[C@H](O)[C@H](O)C(=O)/C=C\C[C@H](C)OC2=O,3850 nM and 5600 nM,13300 nM and 20700 nM
O=c1oc2ccc(F)cc2c(=O)n1-c1ccc(F)cc1F,2760 nM,7780 nM
Cn1cc(-c2cnc3ccc(NC(=O)Nc4ccc(F)c(Br)c4)cc3n2)cn1,1410 nM,3860 nM
O=C1c2cccc(NCCN=Cc3cc(O)ccc3O)c2C(=O)c2c(NCCN=Cc3cc(O)ccc3O)cccc21,584 nM,2370 nM
O=C1/C(=C/c2ccc(Br)cc2)C=C(c2ccccc2)N1CCc1ccccc1,1270 nM,7800 nM
N#C/C(=C1C=C/C(=N/O)C(Br)=C/1)c1ccccc1,1530 nM,15000 nM
O=C(NCCOCCOCCNc1cccc2c1C(=O)N(C1CCCNC1=O)C2=O)c1cc2c(o1)C(=O)c1ccccc1C2=O (centres undefined),1610 nM,4430 nM
O=C(CI)NC1Oc2ccccc2-c2oc(=O)c(-c3ccccc3)cc21 (centres undefined),1790 nM,4320 nM
Cc1ccc(CS/C(=C\c2ccc([N+](=O)[O-])cc2)C(=O)c2ccc(F)cc2)cc1,3410 nM,16400 nM
CCCCCc1ccc(S(=O)(=O)Nc2cccc(-c3csc(NC(=O)CCCCCN4CCN(C)CC4)n3)c2)cc1,1790 nM,3460 nM
COc1cccc(-c2cc(=O)c3cc(N(C)C)ccc3[nH]2)c1,,> 100000 nM and 59200 nM
